Measured values reported in patent publication US8722868B2, “Glycosyltransferase, novel glycosyltransferase gene, and novel sugar donor compound” (National University Corporation Tokyo University of …, priority 2009, dated 2014).

Key:
[1] = target: T1, delphinium-derived glycosyltransferase (SEQ ID NO: 3), recombinant (Delphinium grandiflorum, UniProt E3W9M3); assay: Glycosyl transfer reaction with delphinium-derived glycosyltransferase gene expressed in Escherichia coli; assay type: biochemical, delphinium (Delphinium grandiflorum L.); details: recombinant enzyme from E. coli, cyanidin 3-O-β-glucoside as sugar receptor
T1 construct: made in house; host or cells: Escherichia coli JM109 (crude lysate supernatant)
T1 sequence (E3W9M3 29-505 limits assumed): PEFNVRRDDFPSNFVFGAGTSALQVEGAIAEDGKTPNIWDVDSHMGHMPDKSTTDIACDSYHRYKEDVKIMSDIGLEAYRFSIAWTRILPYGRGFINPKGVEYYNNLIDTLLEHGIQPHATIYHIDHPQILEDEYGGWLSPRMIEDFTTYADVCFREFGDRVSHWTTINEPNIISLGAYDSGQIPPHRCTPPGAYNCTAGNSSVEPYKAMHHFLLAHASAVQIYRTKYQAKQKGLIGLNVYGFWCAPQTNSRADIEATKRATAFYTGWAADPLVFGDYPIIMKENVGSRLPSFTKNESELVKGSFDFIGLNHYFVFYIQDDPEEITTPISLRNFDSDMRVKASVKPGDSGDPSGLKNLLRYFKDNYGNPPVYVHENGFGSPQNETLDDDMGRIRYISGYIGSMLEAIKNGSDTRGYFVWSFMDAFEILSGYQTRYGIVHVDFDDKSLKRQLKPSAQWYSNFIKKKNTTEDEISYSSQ
Description: PCR was performed using a sense primer (“ATGCCCGAATTTAATGTCAG” (SEQ ID NO: 19)) designed so as to add a methionine residue for the initiation of translation to a sequence from which 28 amino acid residues at the N-terminus predicted as corresponding to vacuolar transfer signals of DgVA7GT had been removed and an antisense primer (“CTG TGA AGA GTA CGA TAT C” (SEQ ID NO: 20)) designed so as to lack a stop codon. The PCR product was ligated to a pTrcHis2-TOPO vector (Invitrogen) using a pTrcHis2-TOPO TA expression Kit (Invitrogen), followed by transformation of the Escherichia coli JM109 strain. DNA was extracted from the transformed Escherichia coli and the DNA nucleotide sequence was analyzed in the above manner. Accordingly, the direction of cDNA introduction and the nonoccurrence of a PCR-induced nucleotide substitution were confirmed.
The transformed Escherichia coli was seeded on an LB medium containing […] ampicillin (5 ml), followed by shake culture at 30° C. for 4 hours. Then, IPTG was added thereto to result in 1 mM, followed by shake culture at 16° C. for 2 hours. The cultured Escherichia coli was harvested via centrifugation at 1,800×g. The medium was removed therefrom. A 0.1 M citric acid buffer (pH 5.6) (150 μl) was added thereto, followed by sufficient mixing. […]

[2] = target: T2, glycosyltransferase in crude enzyme extracted from petals of a delphinium (variety: "marine blue") (Delphinium grandiflorum, UniProt E3W9M3); assay: Detection of glycosyl transfer reaction with delphinium petal crude enzyme (HPLC); assay type: biochemical, delphinium (Delphinium grandiflorum L.); details: cyanidin 3-O-β-glucoside 200 μM, sugar donor 1 mM, pH 5.6, 30° C., 15 minutes
T2 construct: Glycosyltransferase activity was examined using a crude enzyme extracted from; from tissue
T2 sequence (E3W9M3 26-505): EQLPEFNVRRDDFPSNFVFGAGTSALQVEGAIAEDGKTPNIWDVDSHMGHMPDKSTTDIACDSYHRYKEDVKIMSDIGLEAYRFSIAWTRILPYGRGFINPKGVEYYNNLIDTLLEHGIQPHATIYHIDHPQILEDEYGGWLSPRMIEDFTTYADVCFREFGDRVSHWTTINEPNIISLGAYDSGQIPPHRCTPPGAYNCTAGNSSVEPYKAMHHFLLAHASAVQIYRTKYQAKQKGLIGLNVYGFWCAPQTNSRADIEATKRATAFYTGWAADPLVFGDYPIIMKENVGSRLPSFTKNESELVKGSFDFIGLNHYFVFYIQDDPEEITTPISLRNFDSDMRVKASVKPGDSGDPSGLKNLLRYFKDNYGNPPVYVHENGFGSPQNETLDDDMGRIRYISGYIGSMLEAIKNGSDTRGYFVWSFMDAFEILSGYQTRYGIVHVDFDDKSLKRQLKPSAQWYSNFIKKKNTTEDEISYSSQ
Description: Glycosyltransferase activity was examined using a crude enzyme extracted from pink petals of a carnation (variety: “Beam Cherry”) or petals of a delphinium (variety: “marine blue”) in the manner described in Example 1. Cyanidin 3-O-β-glucoside (final concentration: 200 μM) and 1-O-β-p-hydroxybenzoyl glucose (final concentration: 1 mM) were used as a receptor and a sugar donor, respectively. The pH was adjusted to 5.6 with a citric acid buffer, followed by a glycosyltransferase reaction at 30° C. for 15 minutes. The reaction was terminated with phosphoric acid (final concentration: 1%), followed by centrifugation for the removal of insoluble matter. Then, the supernatant was analyzed by HPLC. HPLC analysis was carried out using a 1.5% phosphoric acid aqueous solution and methanol as eluents and a Wakopak Handy ODS column (4.6×250 mm, Wako Pure Chemical Industries, Ltd.). Separation was carried out at a flow rate of 1 ml/min with a linear gradient of 20% to 55% methanol (20 minutes). A reaction product was confirmed using a photodiode array detector.

SMILES | Sugar donor function with recombinant delphinium-derived glycosyltransferase (reaction product) [1] | Recognition as sugar donor by delphinium glycosylation enzyme [2]
COc1cc(C(=O)OC2OC(CO)C(O)C(O)C2O)ccc1O (stereo not drawn) | capable of transferring glucose to the 7 position of the anthocyanin skeleton using vanillyl glucose as a sugar donor | 
O=C(OC1OC(CO)C(O)C(O)C1O)c1ccc(O)cc1 (stereo not drawn) [1-O-β-p-hydroxybenzoyl glucose] | cyanidin 3,7-diglucoside formed as a result of transfer of glucose to a hydroxyl group at the 7 position of cyanidin 3-glucoside | recognize 1-O-β-p-hydroxybenzoyl glucose as a sugar donor
